Here are results for one compound from patent US10513522B2, “Azetidinyl phenyl, pyridyl or pyrazinyl carboxamide derivatives as JAK inhibitors” (Incyte Corporation, priority 2011, dated 2019).

SMILES strings stand for the structures.

This assay relates to human JAK1 (a.a. 837-1142). Briefly: In vitro JAK kinase assay (HTRF, phosphorylation of biotinylated peptide), JAK1. The format is biochemical. Particulars: ratio of IC50 at 1 mM ATP. A general note: Time-resolved FRET reads energy transfer from a long-lived donor to a nearby acceptor.

Protocol: The catalytic activity of JAK1, JAK2 or JAK3 was assayed by measuring the phosphorylation of a biotinylated peptide. The phosphorylated peptide was detected by homogenous time resolved fluorescence (HTRF). […] Reactions were carried out at room temperature for 1 hour and then stopped with 20 μL 45 mM EDTA, 300 nM SA-APC, 6 nM Eu-Py20 in assay buffer (Perkin Elmer, Boston, Mass.). Binding to the Europium labeled antibody took place for 40 minutes and HTRF signal was measured on a Fusion plate reader (Perkin Elmer, Boston, Mass.).

Regarding `C[C@H](NC(=O)c1cnc(N2CC(CC#N)(n3cc(-c4ccnc5[nH]ccc45)cn3)C2)cn1)C(F)(F)F` [Example 35, 5-{3-(Cyanomethyl)-3-[4-(1H-pyrrolo[2,3-b]pyridin-4-yl)-1H-pyrazol-1-yl]azetidin-1-yl}-N-[(1S)-2,2,2-trifluoro-1-methylethyl]pyrazine-2-carboxamide], the JAK2/JAK1 entry is recorded as “A (A means greater than or equal to 10)”.
